According to patent US6821980B1, “Substituted 5-benzyl-2,4-diaminopyrimidines” (Basilea Pharmaceutica AG, priority 1999, dated 2004):
Converted amounts (≈) assume the structure as drawn. Like-named read-outs stand apart in the source and are kept apart here.

How the values were obtained:
[1] = biological target: purified DHFR of strain 157/4696 of Staphylococcus aureus (Staphylococcus aureus, UniProt P13955); assay: biochemical
[2] = biological target: T1, purified DHFR of strain Sp1/1 of Streptococcus pneumoniae (Streptococcus pneumoniae serotype 4, UniProt Q54801); type: biochemical
T1 sequence (Q54801 1-168 I100L): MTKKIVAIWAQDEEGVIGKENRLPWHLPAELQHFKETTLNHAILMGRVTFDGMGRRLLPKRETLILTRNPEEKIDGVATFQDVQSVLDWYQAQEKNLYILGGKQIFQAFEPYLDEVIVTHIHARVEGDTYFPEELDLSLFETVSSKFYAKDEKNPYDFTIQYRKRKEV

[3] = test system: Streptococcus pneumoniae 1/1; assay: MIC against Streptococcus pneumoniae 1/1; type: cell-based; details: Streptococcus pneumoniae 1/1, trimethoprim- and penicillin-resistant, serotype 6, clinical isolate; for MIC: read-out: MIC Sp1/1
[4] = test system: Staphylococcus aureus 101; assay: MIC against Staphylococcus aureus 101; type: cell-based; details: Staphylococcus aureus 101, MRSA- and trimethoprim-resistant, clinical isolate; for MIC: read-out: MIC Sa101
[5] = Table 2, IC50 against purified DHFR of strain 157/4696 (highly trimethoprim-resistant; clinical isolate), read-out: DHFR Sa1
[6] = Table 2, IC50 against purified DHFR of strain Sp1/1

purified DHFR of strain 157/4696 of Staphylococcus aureus, sequence (P13955 whole entry): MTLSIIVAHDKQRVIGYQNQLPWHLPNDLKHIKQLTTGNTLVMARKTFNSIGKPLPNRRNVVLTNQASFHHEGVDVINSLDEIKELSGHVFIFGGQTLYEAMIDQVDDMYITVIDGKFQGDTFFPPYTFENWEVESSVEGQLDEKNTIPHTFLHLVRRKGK

| Molecule | IC50 [1, 5] [nM] | IC50 [2, 6] [nM] | MIC Sp1/1 ([3]; Table 2) [µg/mL] | MIC Sa101 ([4]; Table 2) [µg/mL] | IC50 [1] [nM] | MIC ([3]; Table 2) [µg/mL] | MIC ([4]; Table 2) [µg/mL] | IC50 [2] [nM] | MIC ([3]; Table 1) [µg/mL] | MIC ([4]; Table 1) [µg/mL] |
| --- | --- | --- | --- | --- | --- | --- | --- | --- | --- | --- |
| 5-[2-Cyclopropylmethyl-6-ethoxy-4′-(2-morpholin-4-yl-ethoxy)-biphenyl-4-ylmethyl]-pyrimidine-2,4-diamine [Example 56-] | 800 | 32 | 2 | 8 |  |  |  |  |  |  |
| 5-[4′-Amino-2-[(2-tetrahydropyran-4-yl)-ethoxy]-6-ethoxy-4′-methyl-biphenyl-4-ylmethyl]-pyrimidine-2,4-diamine [Example 11-b] | 900 | 9.8 | 1 | 8 |  |  |  |  |  |  |
| CCOc1cc(Cc2cnc(N)nc2N)cc(OCC)c1-c1ccc([S+](C)[O-])cc1 (racemic) [Example 02-j, (RS)-5-(2,6-Diethoxy-4′-methanesulphinyl-biphenyl-4-ylmetyl)-pyrimidine-2,4-diamine] |  | 72 |  |  | 1700 | 4 (≈ 9.38 µM) | 8 (≈ 18.8 µM) |  |  |  |
| CCOc1cc(Cc2cnc(N)nc2N)cc(OCC)c1-c1ccc(N2CC(COC)OC2=O)cc1 (racemic) [Example 04-s, (RS)-3-[4′-(2,4-Diamino-pyrimidin-5-ylmethyl)-2′,6′-diethoxy-biphenyl-4-yl]-5-methoxymethyl-oxazolidin-2-one] |  | 61 |  |  | 1900 | 4 (≈ 8.1 µM) | 8 (≈ 16.2 µM) |  |  |  |
| CCOc1cc(Cc2cnc(N)nc2N)cc(OCCC2CCCCO2)c1-c1cccc(N)c1 (racemic) [Example 07-h, (RS)-5-[3′-Amino-6-ethoxy-2-[2-(tetrahydro-pyran-2-yl)-ethoxy]-biphenyl-4-ylmethyl]-2yrimidine-2,4-diamine] |  | 27 |  |  | 2200 | 2 (≈ 4.31 µM) | 8 (≈ 17.3 µM) |  |  |  |
| CCOc1cc(Cc2cnc(N)nc2N)cc(OCCC2CCCCO2)c1-c1ccc(O)cc1 (racemic) [Example 08-t, (RS)-4′-(2,4-Diamino-pyrimidin-5-ylmethyl)-6′-ethoxy-2′-[2-(tetrahydro-pyran-2-yl)-ethoxy]-biphenyl-4-ol] |  | 25 |  |  | 2400 | 2 (≈ 4.31 µM) | 8 (≈ 17.2 µM) |  |  |  |
| CCOc1cc(Cc2cnc(N)nc2N)cc(O[C@@H]2CCC[C@H]2CC#N)c1-c1ccc(O)cc1 (racemic) [Example 08-u, rac-(E)-{2-[4-(2,4-Diamino-pyrimidin-5-ylmethyl)-6-ethoxy-4′-hydroxy-biphenyl-2-yloxy]-cyclopentyl}-acetonitrile] | 1800 | 150 | 4 (≈ 8.7 µM) | 8 (≈ 17.4 µM) |  |  |  |  |  |  |
| CCOc1cc(Cc2cnc(N)nc2N)cc(OC2CCCC2COC)c1-c1ccc(O)cc1 (racemic) [Example 08-v, rac-(E)-5-[6-Ethoxy-4′-hydroxy-2-(2-methoxymethyl-cyclopentyloxy)-biphenyl-4-ylmethyl]-pyrimidine-2,4-diamine] |  | 82 |  |  | 1500 | 2 (≈ 4.31 µM) | 8 (≈ 17.2 µM) |  |  |  |
| CCOc1cc(Cc2cnc(N)nc2N)cc(O[C@@H]2CCC[C@H]2OC)c1-c1ccc(O)cc1 (relative stereo) [Example 08-y, 5-[6-Ethoxy-2((trans)-2-methoxy-cyclopentyloxy)-4′-hydroxy-biphenyl-4-ylmethtl]-pyrimidine-2,4-diamine] |  | 95 |  |  | 2700 | 4 (≈ 8.88 µM) | 8 (≈ 17.8 µM) |  |  |  |
| CCOc1cc(Cc2cnc(N)nc2N)cc(OCC)c1-n1cccc1 [Epiroprim, reference compound] |  |  | 4 (≈ 11.3 µM) | 16 (≈ 45.3 µM) |  |  |  | 190 | 4 (≈ 11.3 µM) | 16 (≈ 45.3 µM) |
| CCOc1cc(Cc2cnc(N)nc2N)cc(OCC)c1-c1ccc(OC)c(COC)c1 [Example 02-aa, 5-(2,6-Diethoxy-4′-methoxy-3′-methoxymethyl-biphenyl-4-ylmethyl)-pyrimidine-2,4-diamine] |  | 60 |  |  | 2500 | 4 (≈ 9.12 µM) | 8 (≈ 18.2 µM) |  |  |  |
| CCOc1cc(Cc2cnc(N)nc2N)cc(OCC)c1-c1ccc(CO)s1 [Example 02-ab, [5-[4-(2,4-Diamino-pyrimidin-5-ylmethyl)-2,6-diethoxy-phenyl]-thiophen-2-yl]-methanol] |  | 38 |  |  | 880 | 2 (≈ 4.99 µM) | 4 (≈ 9.99 µM) |  |  |  |
| CCOc1cc(Cc2cnc(N)nc2N)cc(OCC)c1-c1ccc(CN2CCOCC2)s1 [Example 02-ac, 5-f3,5-Diethoxy-4-(5-morpholin-4-ylmethyl-thiophen-2-yl)-benzyl-pyrimidine-2,4-diamine] |  | 65 |  |  | 650 | 2 (≈ 4.26 µM) | 8 (≈ 17 µM) |  |  |  |
| CCOc1cc(Cc2cnc(N)nc2N)cc(OCC)c1-c1ccc(C)c(N)c1 [Example 02-ad, 5-(3′-Amino-2,6-diethoxy-4′-methyl-biphenyl-4-ylmethyl)-pyrimidine-2,4-diamine] |  | 85 |  |  | 2000 | 4 (≈ 10.2 µM) | 8 (≈ 20.3 µM) |  |  |  |
| CCOc1cc(Cc2cnc(N)nc2N)cc(OCC)c1-c1ccc(O)c(F)c1 [Example 02-ae, 4′-(2,4-Diamino-pyrimidin-5-ylmethyl)-2′,6′-diethoxy-3-fluoro-biphenyl-4-ol] |  | 150 |  |  | 1600 | 8 (≈ 20.1 µM) | 4 (≈ 10 µM) |  |  |  |
| CCOc1cc(Cc2cnc(N)nc2N)cc(OCC)c1-c1cccc(S(C)(=O)=O)c1 [Example 02-af, 5-(2,6-Diethoxy-3′-methylsulphonyl-biphenyl-4-ylmethyl)-pyrimidine-2,4-diamine] |  | 85 |  |  | 1800 | 8 (≈ 18.1 µM) | 8 (≈ 18.1 µM) |  |  |  |
| CCOc1cc(Cc2cnc(N)nc2N)cc(OCC)c1-c1ccc(C=O)cc1 [Example 02-ag, 4′-(2,4-Diamino-pyrimidin-5-ylmetyl)-2′,6′-diethoxy-biphenyl-4-carbaldehyde] |  | 130 |  |  | 2200 | 8 (≈ 20.4 µM) | 8 (≈ 20.4 µM) |  |  |  |
| CCOc1cc(Cc2cnc(N)nc2N)cc(OCC)c1-c1ccc2[nH]ccc2c1 [Example 02-d, 5-(3,5-Diethoxy-4-(1H-indol-5-yl)-benzyl)-pyrimidine-2,4-diamine] |  | 35 |  |  | 1400 | 1 (≈ 2.48 µM) | 8 (≈ 19.8 µM) |  |  |  |
| CCOc1cc(Cc2cnc(N)nc2N)cc(OCC)c1-c1ccc2cc[nH]c2c1 [Example 02-e, 5-[3,5-Diethoxy-4-(1H-indol-6-yl)-benzl]-pyrimidine-2,4-diamine] |  | 22 |  |  | 1000 | 2 (≈ 4.96 µM) | 4 (≈ 9.91 µM) |  |  |  |
| CCOc1cc(Cc2cnc(N)nc2N)cc(OCC)c1-c1ccc2cc(O)ccc2c1 [Example 02-f, 6-[4-(2,4-Diamino-pyrimidin-5-ylmethyl)-2,6-diethoxy-phenyl]-naphthalen-2-ol] |  | 28 |  |  | 1700 | 4 (≈ 9.29 µM) | 4 (≈ 9.29 µM) |  |  |  |
| CCOc1cc(Cc2cnc(N)nc2N)cc(OCC)c1-c1ccc2[nH]ncc2c1 [Example 02-g, 5-[3,5-Diethoxy-4-(1H-indazol-5-yl)-benzyl]-pyrimidine-2,4-diamine] |  | 12 |  |  | 650 | 2 (≈ 4.94 µM) | 8 (≈ 19.8 µM) |  |  |  |
| CCOc1cc(Cc2cnc(N)nc2N)cc(OCC)c1-c1ccc2c(c1)NCCO2 [Example 02-h, 5-[4-(3,4-Dihydro-2H-benzo[1.4]oxazin-6-yl)-3,5-diethoxy-benzyl]-pyrimidine-2,4-diamine] |  | 38 |  |  | 1200 | 4 (≈ 9.49 µM) | 8 (≈ 19 µM) |  |  |  |
| CCOc1cc(Cc2cnc(N)nc2N)cc(OCC)c1-c1ccc(S(C)(=O)=O)cc1 [Example 02-i, 5-(2,6-Diethoxy-4′-methanesulphonyl-biphenyl-4-ylmethyl)-pyrimidine-2,4-diamine] |  | 100 |  |  | 1600 | 2 (≈ 4.52 µM) | 8 (≈ 18.1 µM) |  |  |  |
| CCOc1cc(Cc2cnc(N)nc2N)cc(OCC)c1-c1ccc(OC)c(OC)c1 [Example 02-l, 5-(2,6-Diethoxy-3′,4′-dimethoxy-biphenyl-4-ylmethy)-pyrimidine-2,4-diamine] |  | 160 |  |  | 8000 | 4 (≈ 9.42 µM) | 8 (≈ 18.8 µM) |  |  |  |
| CCOc1cc(Cc2cnc(N)nc2N)cc(OCC)c1-c1cccs1 [Example 02-m, 5-(3,5-Diethoxy-4-thiophen-2-yl-benzyl)-pyrimidine-2,4-diamine] |  | 58 |  |  | 700 | 4 (≈ 10.8 µM) | 8 (≈ 21.6 µM) |  |  |  |
| CCOc1cc(Cc2cnc(N)nc2N)cc(OCC)c1-c1ccc(OC)c(C)c1 [Example 02-n, 5-(2,6-Diethoxy-4′-methoxy-3′-metyl-biphenyl-4-ylmethyl)-pyrimidine-2,4-diamine] |  | 110 |  |  | 1400 | 4 (≈ 9.79 µM) | 8 (≈ 19.6 µM) |  |  |  |
| CCOc1cc(Cc2cnc(N)nc2N)cc(OCC)c1-c1ccc(NC(C)=O)cc1 [Example 04-p, N-[4′-(2,4-Diamino-pyrimidin-5-ylmethl)-2′,6′-diethoxy-biphen-4-yl]-acetamide] |  |  | 2 (≈ 4.74 µM) | 8 (≈ 19 µM) |  |  |  |  |  |  |
| CCOc1cc(Cc2cnc(N)nc2N)cc(OCC2(CC#N)CC2)c1-c1ccc(OC)cc1 [Example 09-b] |  |  |  |  | 1900 | 2 (≈ 4.35 µM) | 8 (≈ 17.4 µM) |  |  |  |
| COc1cc(Cc2cnc(N)nc2N)cc(OC)c1OC [Trimethoprim, reference compound] |  |  | >32 | 32 (≈ 110 µM) |  |  |  |  | > 32 | 32 (≈ 110 µM) |
